{"source": "ChEMBL document CHEMBL1124313", "about": "“Benzodiazepine gastrin and brain cholecystokinin receptor ligands: L-365,260” (J Med Chem, 1989)", "key": {"[1]": {"molecular_target": "T1, Cholecystokinin receptor type A (Rattus norvegicus, UniProt P30551)", "T1 sequence (P30551 whole entry)": "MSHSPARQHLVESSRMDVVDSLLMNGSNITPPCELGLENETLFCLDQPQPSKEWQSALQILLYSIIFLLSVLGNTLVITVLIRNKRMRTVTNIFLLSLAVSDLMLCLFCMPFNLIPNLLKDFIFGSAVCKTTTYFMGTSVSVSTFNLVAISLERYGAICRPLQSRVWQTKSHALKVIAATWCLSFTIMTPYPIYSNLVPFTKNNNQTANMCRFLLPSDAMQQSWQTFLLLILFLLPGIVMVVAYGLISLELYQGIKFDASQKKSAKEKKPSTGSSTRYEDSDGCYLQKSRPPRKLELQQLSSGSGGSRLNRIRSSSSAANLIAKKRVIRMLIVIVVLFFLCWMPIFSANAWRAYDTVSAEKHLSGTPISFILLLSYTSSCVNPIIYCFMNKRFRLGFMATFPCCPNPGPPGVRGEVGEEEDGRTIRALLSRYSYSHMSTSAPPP", "experiment": "Displacement of [125 I] CCK-8 from Cholecystokinin type A receptor of rat pancreas"}, "[2]": {"experiment": "Displacement of 125 I-gastrin from gastrin receptor of guinea pig gastric glands"}}}
{"smiles": "CN1C(=O)[C@@H](NC(=O)c2ccc(Cl)cc2)N=C(c2ccccc2F)c2ccccc21", "values": [{"measurement": "IC50", "setting": "[1]", "result": 0.39, "unit": "nM"}]}
{"smiles": "CN1C(=O)[C@H](NC(=O)c2ccc(Cl)cc2)N=C(c2ccccc2F)c2ccccc21", "values": [{"measurement": "IC50", "setting": "[1]", "result": 2.9, "unit": "nM"}]}
{"smiles": "O=C(Nc1ccc(Cl)cc1)NC1N=C(c2ccccc2F)c2ccccc2NC1=O", "note": "(racemic)", "values": [{"measurement": "IC50", "setting": "[1]", "result": 110, "unit": "nM"}]}
{"smiles": "CCOC(=O)CN1C(=O)C(NC(=O)c2ccc(Cl)cc2)N=C(c2ccccc2F)c2ccccc21", "note": "(racemic)", "values": [{"measurement": "IC50", "setting": "[2]", "result": 690, "unit": "nM"}]}
